Laboratory results reported in PubChem BioAssay (NCI).
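GI50 marks 50% less growth. TGI: total growth inhibition.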

Columns and labels:
Assay in all cases: DTP human tumour cell line panel, 384-well format; in the data active = GI50 below about 0.43 µM; inactive = the rest
786-0 renal = test system: 786-0 renal
A498 renal = test system: A498 renal
A549 NSCLC = test system: A549 NSCLC
ACHN renal = test system: ACHN renal
BT-549 breast = test system: BT-549 breast
CAKI-1 renal = test system: CAKI-1 renal
CCRF-CEM leukemia = test system: CCRF-CEM leukemia
COLO 205 colon = test system: COLO 205 colon
DU-145 prostate = test system: DU-145 prostate
EKVX NSCLC = test system: EKVX NSCLC
HCC-2998 colon = test system: HCC-2998 colon
HCT-116 colon = test system: HCT-116 colon
HCT-15 colon = test system: HCT-15 colon
HL-60(TB) leukemia = test system: HL-60(TB) leukemia
HOP-62 NSCLC = test system: HOP-62 NSCLC
HOP-92 NSCLC = test system: HOP-92 NSCLC
HS 578T breast = test system: HS 578T breast
HT29 colon = test system: HT29 colon
IGROV1 ovarian = test system: IGROV1 ovarian
K-562 leukemia = test system: K-562 leukemia
KM12 colon = test system: KM12 colon
LOX IMVI melanoma = test system: LOX IMVI melanoma
M14 melanoma = test system: M14 melanoma
MALME-3M melanoma = test system: MALME-3M melanoma
MCF7 breast = test system: MCF7 breast
MDA-MB-231 breast = test system: MDA-MB-231 breast
MDA-MB-435 melanoma = test system: MDA-MB-435 melanoma
MDA-MB-468 breast = test system: MDA-MB-468 breast
MOLT-4 leukemia = test system: MOLT-4 leukemia
NCI-H226 lung = test system: NCI-H226 lung
NCI-H23 lung = test system: NCI-H23 lung
NCI-H322M lung = test system: NCI-H322M lung
NCI-H460 NSCLC = test system: NCI-H460 NSCLC
NCI-H522 lung = test system: NCI-H522 lung
NCI/ADR-RES ovarian = test system: NCI/ADR-RES ovarian
OVCAR-3 ovarian = test system: OVCAR-3 ovarian
OVCAR-4 ovarian = test system: OVCAR-4 ovarian
OVCAR-5 ovarian = test system: OVCAR-5 ovarian
OVCAR-8 ovarian = test system: OVCAR-8 ovarian
RPMI-8226 leukemia = test system: RPMI-8226 leukemia
RXF 393 renal = test system: RXF 393 renal
SF-268 CNS = test system: SF-268 CNS
SF-539 CNS = test system: SF-539 CNS
SK-MEL-28 melanoma = test system: SK-MEL-28 melanoma
SK-MEL-5 melanoma = test system: SK-MEL-5 melanoma
SK-OV-3 ovarian = test system: SK-OV-3 ovarian
SN12C renal = test system: SN12C renal
SNB-19 CNS = test system: SNB-19 CNS
SNB-75 CNS = test system: SNB-75 CNS
SW-620 colon = test system: SW-620 colon
T-47D breast = test system: T-47D breast
TK-10 renal = test system: TK-10 renal
U251 glioblastoma = test system: U251 glioblastoma
UACC-257 melanoma = test system: UACC-257 melanoma
UACC-62 melanoma = test system: UACC-62 melanoma
UO-31 renal = test system: UO-31 renal

CCn1c(CO)nn(-c2cc(O[C@@H](C)C(F)(F)F)c(C(=O)Nc3c(F)cccc3Cl)cc2F)c1=O
18.8 µM: TGI (SK-MEL-5 melanoma)
91.3 µM: TGI (MCF7 breast)
62.6 µM: TGI (HT29 colon)
14.7 µM: TGI (NCI-H460 NSCLC)
43 µM: TGI (CCRF-CEM leukemia)
32.5 µM: TGI (786-0 renal)
30.7 µM: TGI (U251 glioblastoma)
20.4 µM: TGI (SW-620 colon)
active: GI50 ([…]-0 renal) < 0.01 µM | GI50 (A549 NSCLC) < 0.01 µM | GI50 (ACHN renal) < 0.01 µM | GI50 (BT-549 breast) < 0.01 µM | GI50 (CAKI-1 renal) < 0.01 µM | GI50 (CCRF-CEM leukemia) < 0.01 µM | GI50 (COLO 205 colon) < 0.01 µM | GI50 (DU-145 prostate) < 0.01 µM | GI50 (HCT-116 colon) < 0.01 µM | GI50 (HCT-15 colon) < 0.01 µM | GI50 (HL-60(TB) leukemia) < 0.01 µM | GI50 (HOP-92 NSCLC) < 0.01 µM | GI50 (HT29 colon) < 0.01 µM | GI50 (K-562 leukemia) < 0.01 µM | GI50 (KM12 colon) < 0.01 µM | GI50 (LOX IMVI melanoma) < 0.01 µM | GI50 (M14 melanoma) < 0.01 µM | GI50 (MALME-3M melanoma) < 0.01 µM | GI50 (MCF7 breast) < 0.01 µM | GI50 (MDA-MB-231 breast) < 0.01 µM | GI50 (MDA-MB-435 melanoma) < 0.01 µM | GI50 (MDA-MB-468 breast) < 0.01 µM | GI50 (MOLT-4 leukemia) < 0.01 µM | GI50 (NCI-H23 lung) < 0.01 µM | GI50 (NCI-H460 NSCLC) < 0.01 µM | GI50 (NCI-H522 lung) < 0.01 µM | GI50 (NCI/ADR-RES ovarian) < 0.01 µM | GI50 (OVCAR-5 ovarian) < 0.01 µM | GI50 (OVCAR-8 ovarian) < 0.01 µM | GI50 (RPMI-8226 leukemia) < 0.01 µM | GI50 (RXF 393 renal) < 0.01 µM | GI50 (SF-268 CNS) < 0.01 µM | GI50 (SK-MEL-28 melanoma) < 0.01 µM | GI50 (SK-MEL-5 melanoma) < 0.01 µM | GI50 (SN12C renal) < 0.01 µM | GI50 (SW-620 colon) < 0.01 µM | GI50 (TK-10 renal) < 0.01 µM | GI50 (U251 glioblastoma) < 0.01 µM | GI50 (UACC-62 melanoma) < 0.01 µM | GI50 (UO-31 renal) < 0.01 µM
79.2 µM: TGI (SNB-75 CNS)
22.6 µM: TGI (MDA-MB-468 breast)
62.7 µM: TGI (M14 melanoma)
> 100 µM: TGI (A498 renal) | TGI (A549 NSCLC) | TGI (ACHN renal) | TGI (BT-549 breast) | TGI (CAKI-1 renal) | TGI (COLO 205 colon) | TGI (DU-145 prostate) | TGI (EKVX NSCLC) | TGI (HCC-2998 colon) | TGI (HCT-116 colon) | TGI (HCT-15 colon) | TGI (HOP-62 NSCLC) | TGI (HOP-92 NSCLC) | TGI (HS 578T breast) | TGI (IGROV1 ovarian) | TGI (K-562 leukemia) | TGI (KM12 colon) | TGI (MALME-3M melanoma) | TGI (MDA-MB-231 breast) | TGI (MDA-MB-435 melanoma) | TGI (NCI-H226 lung) | TGI (NCI-H23 lung) | TGI (NCI-H322M lung) | TGI (OVCAR-3 ovarian) | TGI (OVCAR-4 ovarian) | TGI (OVCAR-5 ovarian) | TGI (OVCAR-8 ovarian) | TGI (SF-539 CNS) | TGI (SK-OV-3 ovarian) | TGI (SN12C renal) | TGI (SNB-19 CNS) | TGI (TK-10 renal) | TGI (UACC-257 melanoma)
12.3 µM: TGI (RXF 393 renal)
84.5 µM: TGI (NCI-H522 lung)
88 µM: TGI (NCI/ADR-RES ovarian)
inactive: GI50 (A498 renal) 13.5 µM | GI50 (EKVX NSCLC) 63.4 µM | GI50 (HCC-2998 colon) 18.6 µM | GI50 (HOP-62 NSCLC) 6.85 µM | GI50 (HS 578T breast) 15.2 µM | GI50 (IGROV1 ovarian) 2.22 µM | GI50 (NCI-H226 lung) 17.6 µM | GI50 (NCI-H322M lung) 9.92 µM | GI50 (OVCAR-3 ovarian) 20.8 µM | GI50 (OVCAR-4 ovarian) 54.9 µM | GI50 (SF-539 CNS) 16.1 µM | GI50 (SK-OV-3 ovarian) 22.7 µM | GI50 (SNB-19 CNS) 17.5 µM | GI50 (SNB-75 CNS) 13.4 µM | GI50 (T-47D breast) 7.65 µM | GI50 (UACC-257 melanoma) 11.2 µM
28.8 µM: TGI (UO-31 renal)
< 0.01 µM: TGI (HL-60(TB) leukemia) | TGI (LOX IMVI melanoma) | TGI (MOLT-4 leukemia) | TGI (RPMI-8226 leukemia) | TGI (SF-268 CNS)
19.9 µM: TGI (SK-MEL-28 melanoma)
70.2 µM: TGI (UACC-62 melanoma)
58.2 µM: TGI (T-47D breast)
